System: EBTr [NBL-4] cell derived from bovine embryonic trachea
Assay: Measurement of cAMP production promoting action in EBTr [NBL-4] cell
Assay type: cell-based
Details: 1 × 10^−9 M concentration of compound added; EBTr [NBL-4] cells, 15 minutes with 0.5 mM 3-isobutyl-1-methylxanthine; cAMP EIA
Procedure: Measurement of cAMP production promoting action in EBTr [NBL-4] cell derived from bovine embryonic trachea
According to the method of Ito et al. in Br. J. Pharmacol., vol. 99, page 13 (1990), the following test was carried out.
That is, EBTr [NBL-4] cells derived from bovine embryonic trachea (produced by Dainippon Pharmaceutical Co.) were inoculated on 24-well plates (6×10^4 cells/well) (manufactured by Sumitomo Bakelite Co.), and cultured on a growth medium (MEM Earle's medium including 10% calf serum, 2 mM glutamine and non-essential amino acids) for 48 hours, followed by cultivation on 0.5 ml of a growth medium including the test compound and 0.5 mM 3-isobutyl-1-methylxanthine for 15 minutes. After the completion of the reaction, the cells were washed with a phosphate buffer (not including Ca^++ and Mg^++), 0.6 ml of 65% aqueous ethanol solution was added, followed by allowing to stand at 4° C. for an hour, and the resulting cAMP was extracted. After evaporation of the solvent by a centrifugal evaporator, the amount of cAMP was measured by using a cAMP EIA System (manufactured by Amersham Co.).

Compound: O=C(O)c1ccc(CCCC2C(Cl)CC(O)C2C#CC(O)C2CCCCC2)cc1 (stereo not drawn) [Compound 35, 9-Deoxy-9β-chloro-2,3,4,16,17,18,19,20-octanor-1,5-inter-p-phenylene-15-cyclohexyl-13,14-didehydro-PGF1α]
- cAMP production promoting action (percent to PGD2): 150 percent to PGD2

— patent publication US6822112B1, “Prostaglandin derivatives” (Taisho Pharmaceutical Co., Ltd., priority 1999, dated 2004)
